Assay results published in US9776972B2, “Pyrazole derivatives as arginine methyltransferase inhibitors and uses thereof” (priority 2013, dated 2017).

Molecular target: human PRMT3 (Homo sapiens, UniProt O60678)
Test: PRMT3 Biochemical Assay (3H-SAM Flashplate, peptide substrate)
Conditions: single experiment or average of multiple experiments

human PRMT3, sequence (O60678 with tags, fused parts or gaps): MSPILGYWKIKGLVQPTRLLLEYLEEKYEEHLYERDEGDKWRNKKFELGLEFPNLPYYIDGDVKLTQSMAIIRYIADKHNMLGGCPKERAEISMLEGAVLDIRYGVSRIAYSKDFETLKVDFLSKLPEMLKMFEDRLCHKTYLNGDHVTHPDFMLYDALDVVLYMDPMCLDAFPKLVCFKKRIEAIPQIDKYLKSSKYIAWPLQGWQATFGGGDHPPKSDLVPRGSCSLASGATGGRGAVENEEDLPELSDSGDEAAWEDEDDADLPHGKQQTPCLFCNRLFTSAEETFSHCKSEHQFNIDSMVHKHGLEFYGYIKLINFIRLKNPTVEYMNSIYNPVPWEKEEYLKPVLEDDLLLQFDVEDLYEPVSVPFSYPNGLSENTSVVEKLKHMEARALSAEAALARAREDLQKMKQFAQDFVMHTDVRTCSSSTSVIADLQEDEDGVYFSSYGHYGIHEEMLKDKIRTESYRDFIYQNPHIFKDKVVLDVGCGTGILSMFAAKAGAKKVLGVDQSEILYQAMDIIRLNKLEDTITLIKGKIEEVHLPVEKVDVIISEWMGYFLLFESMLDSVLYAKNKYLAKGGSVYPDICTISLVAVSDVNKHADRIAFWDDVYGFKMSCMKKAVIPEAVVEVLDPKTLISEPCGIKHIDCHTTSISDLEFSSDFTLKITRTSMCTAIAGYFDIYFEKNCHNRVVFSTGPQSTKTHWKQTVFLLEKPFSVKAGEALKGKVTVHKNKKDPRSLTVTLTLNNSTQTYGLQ

Compound	IC50 [µM]
CN(CCN)Cc1c[nH]nc1-c1ccc(F)cc1 [Compound 1]	2.65
CN(CCN)Cc1cn(C)nc1-c1ccc(F)cc1 [Compound 3]	25.5
CCN(CCNC)Cc1c[nH]nc1-c1ccc(F)cc1 [Compound 9]	3.16
CNCCN(C)Cc1cnn(C)c1-c1ccc(F)cc1 [Compound 10]	13.4
CNCCN(C)Cc1cnn(CC2CCOCC2)c1-c1ccc(F)cc1 [Compound 12]	> 50
CNCCN(C)Cc1c[nH]nc1-c1cccc(N)c1 [Compound 32]	2.76
CNCCN(C)Cc1c[nH]nc1-c1cccc(NC(C)=O)c1 [Compound 42]	2.55
CNCCN(C)Cc1c[nH]nc1-c1cccc(C(C)=O)c1 [Compound 44]	3.44
CNCCN(C)Cc1c[nH]nc1-c1ccc(-c2ccccc2)cc1 [Compound 47]	0.53
CC(C)Oc1ccc(-c2n[nH]cc2CN(C)CCN)cc1 [Compound 67]	4.58
CN(CCN)Cc1cn(C2COC2)nc1-c1ccc(F)cc1 [Compound 77]	6.29
CN(CCN)Cc1c[nH]nc1-c1ccc(N2CCNCC2)cc1 [Compound 82]	1.59

The next lines start with the values.

IC50 [µM]	Compound
5.82	CN(CCN)Cc1c[nH]nc1-c1ccc(Cl)cc1Cl [Compound 86]
8.08	Cc1ccc(-c2n[nH]cc2CN(C)CCN)c(C)c1 [Compound 88]
9.56	CN(CCN)Cc1c[nH]nc1-c1ccc(F)cc1Cl [Compound 89]
6.97	Cc1ccc(-c2n[nH]cc2CN(C)CCN)c(Cl)c1 [Compound 90]
3.14	CN(CCN)Cc1c[nH]nc1-c1ccc(C(F)(F)F)cc1 [Compound 92]
3.61	CN(CCN)Cc1c[nH]nc1-c1ccc(OC(F)(F)F)cc1 [Compound 93]
5.37	CN(CCN)Cc1c[nH]nc1-c1ccc(OC(F)F)cc1 [Compound 94]
2.39	CN(CCN)Cc1c[nH]nc1-c1ccc(Cl)cc1 [Compound 95]
3.91	CC(C)Oc1ccc(-c2n[nH]cc2CN(C)CCN)cc1Cl [Compound 168]
